Results reported in patent US20100144727A1, “Oxazolidine and Morpholine Carboxamide Derivatives as P2X7 Modulators” (priority 2007, published 2010).

Biological target: T1, human P2X7 receptor (Homo sapiens, UniProt Q99572)
T1 construct: expressed in transfected cells; host or cells: HEK293
T1 sequence (Q99572 1-595): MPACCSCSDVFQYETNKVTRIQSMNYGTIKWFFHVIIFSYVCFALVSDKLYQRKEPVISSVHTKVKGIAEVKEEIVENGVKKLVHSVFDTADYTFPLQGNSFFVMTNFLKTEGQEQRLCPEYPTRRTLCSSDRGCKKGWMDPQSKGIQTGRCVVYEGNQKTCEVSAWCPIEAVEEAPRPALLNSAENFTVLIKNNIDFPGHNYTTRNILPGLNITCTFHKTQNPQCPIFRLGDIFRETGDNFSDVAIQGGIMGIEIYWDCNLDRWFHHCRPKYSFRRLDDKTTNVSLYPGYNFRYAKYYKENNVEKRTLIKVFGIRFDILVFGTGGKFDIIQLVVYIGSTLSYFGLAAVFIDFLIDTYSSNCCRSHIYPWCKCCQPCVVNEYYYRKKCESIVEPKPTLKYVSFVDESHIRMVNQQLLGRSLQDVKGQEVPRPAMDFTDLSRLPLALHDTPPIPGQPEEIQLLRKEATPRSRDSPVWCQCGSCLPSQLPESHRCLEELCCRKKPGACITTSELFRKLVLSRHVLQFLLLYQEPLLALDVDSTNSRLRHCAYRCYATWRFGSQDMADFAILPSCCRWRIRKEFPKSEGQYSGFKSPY
Test: Ethidium Accumulation Assay
Format: cell-based
Details: HEK293 cells expressing human recombinant P2X7 receptors; 1 mM ATP; ethidium 100 μM; read-out: pIC50 in the Ethidium Accumulation Assay (antagonist, blocking ATP responses) (converted)
Method: Studies were performed using NaCl assay buffer of the following composition (in mM): 140 mM NaCl, HEPES 10, N-methyl-D-glucamine 5, KCl 5.6, D-glucose 10, CaCl2 0.5 (pH 7.4). HEK293 cells, expressing human recombinant P2X7 receptors, were grown in poly-L-lysine pretreated 96 well plates for 18-24 h. […] The cells were washed twice with 350 μl of assay buffer before addition of 50 μl of antagonist. The cells were then incubated at room temperature (19-21° C.) for 30 min before addition of ATP and ethidium (100 μM final assay concentration). The ATP concentration was chosen to be close to the EC80 for the receptor type and was 1 mM for studies on the human P2X7 receptor. Incubations were continued for 8 or 16 min and were terminated by addition of 25 μl of 1.3M sucrose containing 5 mM of the P2X7 receptor antagonist reactive black 5 (Aldrich). Cellular accumulation of ethidium was determined by measuring fluorescence (excitation wavelength of 530 nm and emission wavelength of 620 nm) from below the plate with a Canberra Packard Fluorocount (Pangbourne, UK). Antagonist pIC50 values for blocking ATP responses were determined using iterative curve fitting techniques.

Row | Structure (SMILES) | IC50 [nM]
1 | CN1C(=O)OCC1C(=O)NCc1cccc(C(F)(F)F)c1Cl (stereo not shown) [Example E3, N-{[2-chloro-3-(trifluoromethyl)phenyl]methyl}-3-methyl-2-oxo-1,3-oxazolidine-4-carboxamide] | ≤ 100
2 | CN1C(=O)OC[C@H]1C(=O)NCc1cccc(C(F)(F)F)c1Cl [Example E4, N-{[2-chloro-3-(trifluoromethyl)phenyl]methyl}-3-methyl-2-oxo-1,3-oxazolidine-4-carboxamide] | ≤ 100
3 | CN1C(=O)COCC1C(=O)NCc1cccc(C(F)(F)F)c1Cl (stereo not shown) [Example E10, N-{[2-chloro-3-(trifluoromethyl)phenyl]methyl}-4-methyl-5-oxo-3-morpholinecarboxamide] | ≤ 100
4 | CCN1C(=O)OC[C@H]1C(=O)NCc1ccc(F)cc1Cl [Example E1, N-[(2-chloro-4-fluorophenyl)methyl]-3-ethyl-2-oxo-1,3-oxazolidine-4-carboxamide] | ≤ 100
